Source: PubChem BioAssay (NCI)
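Growth conditions: 96-well plates. Treatment: test compound, 48 hours, 5 concentrations. Analysis: linear interpolation between bracketing concentrations; unreached endpoints set to highest concentration. TGI marks complete inhibition of growth.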

What was measured:
Experiment in all cases: NCI-60 cell line screen, 48 h
A549 NSCLC = test system: A549 NSCLC
BT-549 breast = test system: BT-549 breast
EKVX NSCLC = test system: EKVX NSCLC
HS 578T breast = test system: HS 578T breast
M14 melanoma = test system: M14 melanoma
MALME-3M melanoma = test system: MALME-3M melanoma
NCI/ADR-RES ovarian = test system: NCI/ADR-RES ovarian
SW-620 colon = test system: SW-620 colon
U251 CNS = test system: U251 CNS
HOP-92 NSCLC = test system: HOP-92 NSCLC
SK-OV-3 ovarian = test system: SK-OV-3 ovarian
RXF 393 renal = test system: RXF 393 renal
SNB-75 CNS = test system: SNB-75 CNS

Compound	TGI (A549 NSCLC)	TGI (BT-549 breast)	TGI (EKVX NSCLC)	TGI (HS 578T breast)	TGI (M14 melanoma)	TGI (MALME-3M melanoma)	TGI (NCI/ADR-RES ovarian)	TGI (SW-620 colon)	TGI (U251 CNS)	TGI (HOP-92 NSCLC)	TGI (SK-OV-3 ovarian)	TGI (RXF 393 renal)	TGI (SNB-75 CNS)
COc1ccc(NS(=O)c2ccc(OC)cc2)cc1 (stereo not drawn)	> 100 µM	> 100 µM	> 100 µM	> 100 µM	> 100 µM	90.9 µM	> 100 µM	> 100 µM	34.2 µM	–	–	–	–
O=C(n1c(=O)n(-c2ccc(Cl)cc2)c(=O)n1C(=O)C(Cl)(Cl)Cl)C(Cl)(Cl)Cl	> 100 µM	> 100 µM	> 100 µM	> 100 µM	–	> 100 µM	> 100 µM	> 100 µM	> 100 µM	> 100 µM	> 100 µM	–	–
O=C1C(=C(C(=O)c2ccccc2)C(=O)c2ccccc2)OC(c2ccccc2)=C1C(=O)c1ccccc1	51.6 µM	19.9 µM	34.8 µM	54.3 µM	31 µM	39.4 µM	24.5 µM	–	> 100 µM	31.6 µM	34.6 µM	8.13 µM	–
CCCCCCCSCC1C(=O)C23C(O)C1CCC2C12COC3(O)C(O)C1C(C)(C)CCC2O (stereo not drawn)	39.3 µM	–	32.9 µM	–	24.7 µM	27.4 µM	–	3.23 µM	22.7 µM	31.8 µM	32 µM	27.1 µM	49.2 µM
CC(C)(C)N(Cc1ccoc1)C(=O)/C=C\S(=O)c1ccccc1 (stereo not drawn)	> 100 µM	30.3 µM	75.5 µM	68 µM	40 µM	–	56.2 µM	32 µM	29.9 µM	34.4 µM	77.6 µM	–	–
COC1=CC(=O)[C@]2(C)[C@H](C1=O)C(C)[C@H]2c1ccccc1 (stereo partly drawn)	> 100 µM	–	> 100 µM	–	> 100 µM	> 100 µM	–	> 100 µM	> 100 µM	> 100 µM	> 100 µM	> 100 µM	> 100 µM
COc1ccc2nc3ccc(OC)cc3c(SCC3CO3)c2c1 (stereo not drawn)	> 100 µM	30.4 µM	34.2 µM	–	29 µM	30.5 µM	38.5 µM	24.4 µM	27.1 µM	–	> 100 µM	33.5 µM	> 100 µM
CN(C)/C=C/c1ccncc1	> 100 µM	> 100 µM	> 100 µM	–	> 100 µM	> 100 µM	> 100 µM	> 100 µM	> 100 µM	> 100 µM	> 100 µM	> 100 µM	–
Cc1nn(C(=O)Cc2ccccc2)c2c1C(c1ccccc1[N+](=O)[O-])SC(N)=N2 (stereo not drawn)	> 100 µM	> 100 µM	> 100 µM	> 100 µM	> 100 µM	> 100 µM	–	> 100 µM	–	–	> 100 µM	–	> 100 µM
ClCc1ccc2ccc3ccc(CCl)nc3c2n1	> 42.2 µM	–	> 47.5 µM	–	–	3.69 µM	3.66 µM	7.79 µM	3.78 µM	3.63 µM	–	3.17 µM	5.83 µM
CCOC(=O)C(=CNC(=S)Nc1c(CC)cccc1CC)C(=O)OCC	> 100 µM	–	> 100 µM	> 100 µM	> 100 µM	> 100 µM	> 100 µM	> 100 µM	> 100 µM	> 100 µM	> 100 µM	> 100 µM	92.6 µM
CC1SC(=O)SC1C (stereo not drawn)	> 100 µM	–	> 100 µM	> 100 µM	> 100 µM	–	> 100 µM	> 100 µM	> 100 µM	–	> 100 µM	–	> 100 µM
[C-]#[N+]C1(C(=O)OCC)CC1	> 100 µM	–	> 100 µM	> 100 µM	> 100 µM	> 100 µM	> 100 µM	> 100 µM	> 100 µM	> 100 µM	–	> 100 µM	> 100 µM
O=C1c2c(nc3ccccc3c2-c2ccccc2)CN1Nc1ccccc1	> 100 µM	–	> 100 µM	–	> 100 µM	> 100 µM	–	> 100 µM	–	> 100 µM	> 100 µM	–	–
C/C(=N\O)C(CN1CCCCC1)C(c1ccccc1)c1c(O)c2ccccc2oc1=O (stereo not drawn)	> 100 µM	–	> 100 µM	–	> 100 µM	> 100 µM	–	> 100 µM	–	> 100 µM	> 100 µM	> 100 µM	> 100 µM
COc1ccc(/C=C2\CN(C)CC3C2=NC(=S)NC3c2ccc(OC)cc2)cc1 (stereo not drawn)	> 100 µM	> 100 µM	> 100 µM	> 100 µM	15.8 µM	> 31.4 µM	19.1 µM	> 100 µM	> 52.6 µM	94.3 µM	> 100 µM	7.49 µM	–
N#CN1CCC=C(c2cc3ccccc3[nH]2)C1	> 448 µM	–	> 448 µM	–	–	> 448 µM	–	> 448 µM	> 448 µM	427 µM	> 448 µM	> 448 µM	–
O=C(CN1CCOCC1)Nc1ccc2c(c1)C1Oc3ccccc3CC1CO2 (stereo not drawn)	> 100 µM	> 100 µM	> 100 µM	–	> 100 µM	> 100 µM	> 100 µM	> 100 µM	> 100 µM	> 100 µM	> 100 µM	–	–
Cc1ccc(S(=O)(=O)c2c3[nH]c4ccccc4nc3n3c2nc2ccccc23)cc1	> 100 µM	–	> 100 µM	–	> 100 µM	> 100 µM	–	> 100 µM	> 100 µM	> 100 µM	> 100 µM	–	> 100 µM
CC1=NN(C(=O)c2ccc(Cl)cc2)C(=O)/C1=C/c1ccc(O)cc1	> 100 µM	–	> 100 µM	–	> 100 µM	> 100 µM	–	> 100 µM	> 100 µM	> 100 µM	> 100 µM	> 100 µM	–
CCOC(=O)c1nc2ccccc2nc1Oc1ccc(OC)cc1	> 100 µM	> 100 µM	> 100 µM	> 100 µM	> 100 µM	> 100 µM	> 100 µM	> 100 µM	> 100 µM	> 100 µM	> 100 µM	> 100 µM	–
